Experimental data reported in patent publication US12064426B2, “Selective inhibitors of ROCK1 and ROCK2 protein kinases and uses thereof” (GENOSCO Inc., priority 2021, dated 2024).

Legend:
[1] = target: T1, Recombinant ROCK1 (amino acids 1-477) (Homo sapiens, UniProt Q13464); experiment: ROCK inhibition assay, LANCE Ultra TR-FRET kinase assay (ROCK1); type: biochemical; conditions: 1 μM ATP, 50 nM ULight-CREBtide substrate
T1 construct: Recombinant ROCK1 (amino acids 1-477); by word order, ROCK1 from Carna Biosciences
In short: (§1)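 LANCE Ultra TR-FRET kinase assay with recombinant ROCK1 (aa 1-477) or ROCK2 (aa 5-554), 50 nM ULight-CREBtide and ATP at 1 μM (ROCK1) or 4 μM (ROCK2) in HEPES pH 7.5 with MgCl2, 1 h at room temperature. EDTA stop with Eu anti-phospho-CREB Ser133 antibody; 665/615 nm read gives IC50.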

[2] = target: T2, Recombinant ROCK2 (amino acids 5-554) (Homo sapiens, UniProt O75116); experiment: ROCK inhibition assay, LANCE Ultra TR-FRET kinase assay (ROCK2); type: biochemical; conditions: 4 μM ATP, 50 nM ULight-CREBtide substrate
T2 construct: ROCK2 (amino acids 5-554); by word order, ROCK2 from SignalChem
In short: as §1

T1 sequence (Q13464 1-477): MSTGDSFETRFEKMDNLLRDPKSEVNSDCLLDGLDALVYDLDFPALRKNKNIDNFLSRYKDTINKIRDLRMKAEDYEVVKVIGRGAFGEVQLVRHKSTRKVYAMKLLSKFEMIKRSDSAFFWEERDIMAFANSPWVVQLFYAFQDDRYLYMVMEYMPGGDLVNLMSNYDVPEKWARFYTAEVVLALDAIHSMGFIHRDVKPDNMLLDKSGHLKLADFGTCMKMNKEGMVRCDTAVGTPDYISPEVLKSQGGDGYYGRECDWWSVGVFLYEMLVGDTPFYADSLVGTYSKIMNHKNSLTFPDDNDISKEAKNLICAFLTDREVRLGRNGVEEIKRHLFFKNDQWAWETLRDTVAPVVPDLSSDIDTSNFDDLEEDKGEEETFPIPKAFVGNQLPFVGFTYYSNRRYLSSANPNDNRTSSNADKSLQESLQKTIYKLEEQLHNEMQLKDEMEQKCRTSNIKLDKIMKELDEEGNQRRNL
T2 sequence (O75116 5-554): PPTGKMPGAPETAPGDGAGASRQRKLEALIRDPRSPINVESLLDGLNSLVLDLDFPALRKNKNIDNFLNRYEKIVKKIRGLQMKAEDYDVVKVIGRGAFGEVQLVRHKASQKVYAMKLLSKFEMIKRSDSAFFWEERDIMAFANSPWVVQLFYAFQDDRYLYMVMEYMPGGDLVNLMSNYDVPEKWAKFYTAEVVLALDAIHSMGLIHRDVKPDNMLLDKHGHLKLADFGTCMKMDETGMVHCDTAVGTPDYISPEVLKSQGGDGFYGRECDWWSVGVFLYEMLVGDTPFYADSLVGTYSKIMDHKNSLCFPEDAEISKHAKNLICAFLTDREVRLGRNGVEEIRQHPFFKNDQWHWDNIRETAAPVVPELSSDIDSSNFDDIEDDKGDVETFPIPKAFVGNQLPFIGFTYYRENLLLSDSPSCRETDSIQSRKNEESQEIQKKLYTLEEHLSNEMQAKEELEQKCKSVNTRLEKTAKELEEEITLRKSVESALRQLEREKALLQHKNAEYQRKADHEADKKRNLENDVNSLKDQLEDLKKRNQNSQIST

Row | Compound | IC50 [1] | IC50 [2]
1 | Cc1nocc1-c1ccc2c(=O)n(Cc3cccc(C(=O)NCCN4CCOCC4)c3)ccc2c1 [Compound 69] | 101 to 500 nM | 10 to 100 nM
2 | Cn1nccc1-c1ccc2c(=O)n(Cc3cccc(C(=O)NCCO)c3)cnc2c1 [Compound 432] | 101 to 500 nM | 10 to 100 nM
3 | CNC(=O)c1cccc([C@@H](C)n2cnc3cc(-c4conc4C)ncc3c2=O)c1 [Compound 572] | 101 to 500 nM | 10 to 100 nM
4 | CNC(=O)c1cccc(Cn2ccc3cc(-c4ccncc4)ccc3c2=O)c1 [Compound 325] | 101 to 500 nM | 10 to 100 nM
5 | COc1cccc(Cn2ccc3cc(-c4cn[nH]c4)ccc3c2=O)c1 [Compound 2, 2-(3-methoxybenzyl)-6-(1H-pyrazol-4-yl)isoquinolin-1(2H)-one] | 101 to 500 nM | 10 to 100 nM
6 | Cc1nocc1-c1ccc2c(=O)n(Cc3cc(F)cc(C(=O)NCC4CCN(CC(F)(F)F)CC4)c3)ccc2c1 [Compound 153] | 101 to 500 nM | < 10 nM
7 | Nc1cc(-c2ccc3c(=O)n(Cc4cccc(C(=O)NCc5ccc6ccccc6c5)c4)ccc3c2)ccn1 [Compound 182] | > 501 nM | 100 to 500 nM
8 | Cc1n[nH]cc1-c1ccc2c(=O)n(Cc3cccc(C(=O)NCC(F)(F)F)c3)ccc2c1 [Compound 41] | 101 to 500 nM | 10 to 100 nM
9 | Cc1nocc1-c1ccc2c(=O)n(Cc3cccc(C(=O)Nc4ccon4)c3)ccc2c1 [Compound 90] | > 501 nM | 100 to 500 nM
10 | O=C(NC1CCOCC1)c1cccc(Cn2cnc3cc(-c4cn[nH]c4C(F)(F)F)ccc3c2=O)c1 [Compound 376] | 11 to 100 nM | < 10 nM
11 | Cc1nocc1-c1ccc2c(=O)n(Cc3cccc(C(=O)NCC4COC4)c3)cnc2c1 [Compound 415] | 11 to 100 nM | < 10 nM
12 | Cc1nocc1-c1ccc2c(=O)n(Cc3cccc(C(=O)NCCO)c3)ccc2c1 [Compound 102] | > 501 nM | 10 to 100 nM
13 | CNC(=O)c1cccc(Cn2cc(CCN(C)C)c3cc(-c4cn[nH]c4Cl)ccc3c2=O)c1 [Compound 564] | 11 to 100 nM | < 10 nM
14 | Cc1nocc1-c1ccc2c(=O)n(Cc3cc(F)cc(C(=O)NCC4COC4)c3)ccc2c1 [Compound 145] | 101 to 500 nM | 10 to 100 nM
15 | C[C@H](c1cccc(C(=O)N(C)C)c1)n1cnc2cc(-c3cn[nH]c3C(F)(F)F)ccc2c1=O [Compound 442] | > 501 nM | > 500 nM
16 | CNC(=O)c1cccc([C@@H](C)n2cnc3cc(-c4cn[nH]c4OC)ncc3c2=O)c1 [Compound 571] | 11 to 100 nM | < 10 nM
17 | Nc1cc(-c2ccc3c(=O)n(Cc4cc(F)cc(C(=O)Nc5ccon5)c4)ccc3c2)ccn1 [Compound 205] | > 501 nM | 100 to 500 nM

Row | Compound | IC50 [1] | IC50 [2]
18 | Cc1nocc1-c1ccc2c(=O)n(C(CN)c3cccc(Cl)c3)cnc2c1 (stereo not shown) [Compound 497] | 11 to 100 nM | < 10 nM
19 | Cn1nccc1-c1ccc2c(=O)n(Cc3cccc(C(=O)N[C@H]4CC[C@@H](O)CC4)c3)cnc2c1 [Compound 429] | 11 to 100 nM | < 10 nM
20 | Cc1nocc1-c1ccc2c(=O)n(Cc3cccc(NC(=O)C4COC4)c3)ccc2c1 [Compound 348] | 11 to 100 nM | 10 to 100 nM
21 | O=C(NCCO)c1cc(F)cc(Cn2ccc3cc(-c4c[nH]nc4Cl)ccc3c2=O)c1 [Compound 65] | 101 to 500 nM | 10 to 100 nM
22 | Cc1nocc1-c1ccc2c(=O)n(Cc3cccc(C(=O)NCC4CCN(C5CC5)CC4)c3)ccc2c1 [Compound 80] | 101 to 500 nM | 10 to 100 nM
23 | COc1cccc(C(CO)n2cnc3cc(-c4cn[nH]c4C)ccc3c2=O)c1 (stereo not shown) [Compound 489] | 11 to 100 nM | 10 to 100 nM
24 | CNC(=O)c1cccc([C@@H](C)n2cnc3cc(-c4ccnn4C)ccc3c2=O)c1 [Compound 476] | 11 to 100 nM | < 10 nM
25 | Cc1nocc1-c1ccc2c(=O)n(Cc3cc(F)cc(C(=O)N[C@H]4C[C@@H](O)C4)c3)ccc2c1 [Compound 137] | 101 to 500 nM | 10 to 100 nM
26 | CNC(=O)c1cccc([C@@H](C)n2cnc3cc(-c4cn[nH]c4C)ccc3c2=O)c1 [Compound 441] | 11 to 100 nM | < 10 nM
27 | Cc1nocc1-c1ccc2c(=O)n(Cc3cccc(C(=O)NCC4CCN(C)CC4)c3)ccc2c1 [Compound 78] | 11 to 100 nM | < 10 nM
28 | CNC(=O)c1cccc(Cn2ccc3cc(-c4c[nH]nc4Cl)ncc3c2=O)c1 [Compound 235] | 11 to 100 nM | < 10 nM
29 | Nc1cc(-c2ccc3c(=O)n(Cc4cccc(C(=O)NC5COC5)c4)ccc3c2)ccn1 [Compound 195] | 101 to 500 nM | 10 to 100 nM
30 | CNC(=O)c1cc(F)cc(C(C)n2ccc3cc(-c4cn[nH]c4F)ccc3c2=O)c1 (stereo not shown) [Compound 298] | 11 to 100 nM | < 10 nM
31 | O=c1c2ccc(-c3ccncc3)cc2ccn1Cc1cccc(O)c1 [Compound 23] | > 501 nM | 100 to 500 nM
32 | O=C(Nc1ccon1)c1cccc(Cn2cnc3cc(-c4cn[nH]c4C(F)(F)F)ccc3c2=O)c1 [Compound 375] | 101 to 500 nM | 10 to 100 nM
33 | Cn1nccc1-c1ccc2c(=O)n(Cc3cccc(C(=O)N[C@H]4CC[C@@H](O)CC4)c3)ccc2c1 [Compound 116] | 101 to 500 nM | 10 to 100 nM

Next, values leading:

Row | IC50 [1] | IC50 [2] | Compound
34 | 11 to 100 nM | < 10 nM | Cc1nocc1-c1ccc2c(=O)n(Cc3cccc(C(=O)Nc4ccc5c(c4)COCC5)c3)ccc2c1 [Compound 92]
35 | 11 to 100 nM | < 10 nM | CNC(=O)c1cccc(Cn2cc(C(C)O)c3cc(-c4ccnn4C)ccc3c2=O)c1 (stereo not shown) [Compound 540]
36 | 11 to 100 nM | 10 to 100 nM | CN1CCC(NC(=O)c2cc(F)cc(Cn3ccc4cc(-c5ccnn5C)ccc4c3=O)c2)CC1 [Compound 176]
37 | 11 to 100 nM | < 10 nM | O=C(NC1CCN(C2COC2)CC1)c1cccc(Cn2cnc3cc(-c4cn[nH]c4C(F)(F)F)ccc3c2=O)c1 [Compound 377]
38 | 11 to 100 nM | < 10 nM | [2H]C([2H])([2H])NC(=O)c1cc(F)cc(Cn2ccc3cc(-c4cn[nH]c4C(F)(F)F)ccc3c2=O)c1 [Compound 282]
39 | 11 to 100 nM | < 10 nM | [2H]C([2H])([2H])NC(=O)c1cccc(Cn2ccc3cc(-c4cn[nH]c4F)ccc3c2=O)c1 [Compound 296]
40 | 11 to 100 nM | < 10 nM | O=C(NCC1COC1)c1cccc(Cn2ccc3cc(-c4c[nH]nc4C(F)F)ccc3c2=O)c1 [Compound 58]
41 | 11 to 100 nM | < 10 nM | O=C(N[C@H]1CC[C@@H](O)CC1)c1cc(F)cc(Cn2ccc3cc(-c4c[nH]nc4Cl)ccc3c2=O)c1 [Compound 66]
42 | 11 to 100 nM | 10 to 100 nM | O=c1c2ccc(-c3cn[nH]c3Cl)cc2ncn1C(CO)c1cccc(Cl)c1 (stereo not shown) [Compound 487]
43 | < 10 nM | < 10 nM | CNC(=O)c1cccc(Cn2cc(C(C)O)c3cc(-c4c[nH]nc4C(F)F)ccc3c2=O)c1 (stereo not shown) [Compound 535]
44 | < 10 nM | < 10 nM | Cc1nocc1-c1ccc2c(=O)n(Cc3cccc(C(=O)Nc4ccc5c(c4)CCN(C4CC4)C5)c3)ccc2c1 [Compound 99]
45 | 11 to 100 nM | < 10 nM | CNC(=O)c1cccc(Cn2cc(CC(C)O)c3cc(-c4cn[nH]c4C(F)F)ccc3c2=O)c1 (stereo not shown) [Compound 559]
46 | 11 to 100 nM | < 10 nM | CNC(=O)c1cccc(Cn2cc(CCN(C)C)c3cc(-c4c[nH]nc4N)ccc3c2=O)c1 [Compound 567]
47 | < 10 nM | < 10 nM | O=C(N[C@H]1CC[C@@H](O)CC1)c1cc(F)cc(Cn2ccc3cc(-c4c[nH]nc4Cl)ncc3c2=O)c1 [Compound 262]
48 | 11 to 100 nM | < 10 nM | CN1CCC(CNC(=O)c2cc(F)cc(Cn3ccc4cc(-c5ccnn5C)ccc4c3=O)c2)CC1 [Compound 172]
49 | < 10 nM | < 10 nM | Nc1cc(-c2ccc3c(=O)n(Cc4cccc(C(=O)Nc5nc6c(s5)CNCC6)c4)ccc3c2)ccn1 [Compound 190]
50 | 11 to 100 nM | < 10 nM | CN1CC(CNC(=O)c2cccc(Cn3ccc4cc(-c5ccnn5C)ccc4c3=O)c2)C1 [Compound 113]
51 | 11 to 100 nM | < 10 nM | [2H]C([2H])([2H])NC(=O)c1cccc(Cn2ccc3cc(-c4cn[nH]c4C(F)(F)F)ncc3c2=O)c1 [Compound 234]
52 | 11 to 100 nM | < 10 nM | C[C@H](c1cccc(C(=O)N[C@H]2C[C@@H](O)C2)c1)n1cnc2cc(-c3ccnn3C)ccc2c1=O [Compound 478]
53 | 11 to 100 nM | < 10 nM | COc1cc(F)cc(Cn2cnc3cc(-c4c[nH]nc4Cl)ccc3c2=O)c1 [Compound 361]
54 | 11 to 100 nM | < 10 nM | [2H]C([2H])([2H])NC(=O)c1cccc(Cn2cnc3cc(-c4cn[nH]c4C(F)(F)F)ccc3c2=O)c1 [Compound 368]
55 | < 10 nM | < 10 nM | O=C(NCC1CCNCC1)c1cc(F)cc(Cn2ccc3cc(-c4c[nH]nc4C(F)F)ccc3c2=O)c1 [Compound 61]
56 | < 10 nM | < 10 nM | O=C(NCc1ccncc1)c1cccc(Cn2cnc3cc(-c4cn[nH]c4C(F)(F)F)ccc3c2=O)c1 [Compound 372]
57 | < 10 nM | < 10 nM | CN1CCC(NC(=O)c2cccc(Cn3cnc4cc(-c5cn[nH]c5C(F)(F)F)ccc4c3=O)c2)CC1 [Compound 378]
58 | < 10 nM | < 10 nM | CN1CCC(CNC(=O)c2cc(F)cc(Cn3ccc4cc(-c5c[nH]nc5C(F)F)ccc4c3=O)c2)CC1 [Compound 62]
59 | < 10 nM | < 10 nM | C[C@H](c1cccc(C(=O)NCCN(C)C)c1)n1cnc2cc(-c3cn[nH]c3C(F)F)ccc2c1=O [Compound 460]
